From paper PMC6664820, “Novel natural and synthetic inhibitors of solute carriers SGLT1 and SGLT2” (Pharmacology Research & Perspectives, 2019)
Counter-ions that a name gives are not always drawn. Like-named read-outs stand apart in the source and are kept apart here.

Legend:
SGLT1 = target: T1, SGLT1 (Homo sapiens, UniProt P13866); experiment: SGLT1 inhibition assay for validation of screening hits and similar compounds (1‐NBD‐glucose uptake, CHO‐hSGLT1 cells); format: cell-based; details: for remaining activity at 5 µM / remaining activity at 50 µM: 0.5 h, mean, concentration not given, read-out: NORMALIZED SGLT1 ACTIVITY (%)
T1 sequence (P13866 1-664): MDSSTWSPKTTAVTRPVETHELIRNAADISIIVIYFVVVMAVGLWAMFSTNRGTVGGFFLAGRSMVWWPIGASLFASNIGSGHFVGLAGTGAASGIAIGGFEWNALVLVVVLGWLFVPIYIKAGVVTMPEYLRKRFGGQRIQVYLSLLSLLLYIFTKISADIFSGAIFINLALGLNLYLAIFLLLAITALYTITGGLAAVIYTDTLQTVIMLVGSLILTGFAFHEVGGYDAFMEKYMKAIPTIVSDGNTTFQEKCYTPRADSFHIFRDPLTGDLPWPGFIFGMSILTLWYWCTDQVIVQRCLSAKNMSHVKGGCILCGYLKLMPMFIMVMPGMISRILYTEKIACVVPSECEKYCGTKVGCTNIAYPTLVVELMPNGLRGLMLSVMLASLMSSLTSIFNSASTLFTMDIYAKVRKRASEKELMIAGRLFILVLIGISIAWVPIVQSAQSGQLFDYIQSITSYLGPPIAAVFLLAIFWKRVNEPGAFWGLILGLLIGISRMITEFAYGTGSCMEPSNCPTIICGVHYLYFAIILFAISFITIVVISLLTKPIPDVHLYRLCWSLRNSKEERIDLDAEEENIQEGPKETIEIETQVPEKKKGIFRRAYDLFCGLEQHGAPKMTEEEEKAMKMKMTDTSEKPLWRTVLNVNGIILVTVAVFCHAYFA

hSGLT2 = target: T2, hSGLT2 (Homo sapiens, UniProt P31639); experiment: SGLT2 inhibition assay for validation of screening hits and similar compounds (1‐NBD‐glucose uptake, CHO‐hSGLT2 cells); format: cell-based; parameters: activity: dose or concentration left out as unconfirmed; details: for remaining activity at 5 µM / remaining activity at 50 µM: 0.5 h, concentration not given, read-out: NORMALIZED SGLT2 ACTIVITY (%); for remaining activity at 5 µM / remaining activity at 50 µM / activity: mean; for SGLT2/SGLT1 ACTIVITY RATIO, first concentration / SGLT2/SGLT1 ACTIVITY RATIO, second concentration: ratio of normalized SGLT2 to SGLT1 activity; for activity: compound, normalized 1-NBD-glucose uptake, CHO-hSGLT2 cells
T2 sequence (P31639 1-672): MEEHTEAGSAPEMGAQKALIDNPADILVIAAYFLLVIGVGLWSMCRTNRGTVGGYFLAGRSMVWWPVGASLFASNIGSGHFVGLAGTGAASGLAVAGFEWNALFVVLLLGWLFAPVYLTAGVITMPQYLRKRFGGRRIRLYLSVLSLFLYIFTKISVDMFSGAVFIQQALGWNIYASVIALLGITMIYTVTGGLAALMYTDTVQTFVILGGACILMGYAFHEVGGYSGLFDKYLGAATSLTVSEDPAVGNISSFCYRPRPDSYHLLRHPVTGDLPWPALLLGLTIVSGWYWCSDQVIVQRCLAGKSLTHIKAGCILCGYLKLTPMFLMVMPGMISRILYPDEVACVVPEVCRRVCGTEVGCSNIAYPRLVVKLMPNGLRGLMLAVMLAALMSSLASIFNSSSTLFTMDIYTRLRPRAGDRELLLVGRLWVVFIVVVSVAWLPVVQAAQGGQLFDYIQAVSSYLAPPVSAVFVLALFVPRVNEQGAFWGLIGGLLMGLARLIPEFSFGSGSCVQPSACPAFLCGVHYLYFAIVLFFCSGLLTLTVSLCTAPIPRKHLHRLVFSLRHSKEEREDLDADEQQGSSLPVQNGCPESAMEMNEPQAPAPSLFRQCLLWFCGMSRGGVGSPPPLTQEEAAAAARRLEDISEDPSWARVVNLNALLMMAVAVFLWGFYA

CHO‐hSGLT1/2 cells = experiment: Cytotoxicity assay (ToxiLight, adenylate kinase leakage into CHO‐SGLT1/2 inhibition assay media); parameters: CYTOTOXICITY / CY[…], mean / CYTOTOXICITY (% of vehicle control) Mean / CYTOTOXICITY, mean / CY[…] (% of vehicle control) Mean: dose or concentration left out as unconfirmed; details: for CY[…] 50 mM: at 50 mM (so in the source);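 on all read-outs here: bioluminescent read-out of adenylate kinase released from lysed cells into the medium, given relative to DMSO vehicle control defined as 0%, higher meaning more cytolysis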
Description: The cytotoxicity of representative SGLT1/2 inhibitors and compounds from the different chemical clusters was tested. Cytotoxicity was determined using the ToxiLight bioassay kit according to the supplier's instructions. This nondestructive assay measures leakage of the enzyme adenylate kinase (AK) from damaged cells into the CHO‐SGLT1/2 inhibition assay media, ie the degree of cytolysis. […] Next, bioluminescence was measured using a FlexStation 3 Multi‐Mode Microplate Reader (Molecular Devices) by 1 second integrated reading. Cytotoxicity was expressed as the percentage of bioluminescence of the DMSO vehicle control which was set at 0%. If applicable, statistical outliers were determined using Grubbs’ test (alpha = 0.05) and excluded for calculation of the mean ± SD.

[1] = ToxiLight, adenylate kinase leakage
[2] = ratio of normalized SGLT2 to SGLT1 activity at 5 uM
[3] = mean inhibition with 50 μmol/L inhibitor

Compound: Cc1cccc(C)c1NC(=O)C1CCCCN1C (racemic) [(±)-Mepivacaine HCl]
- remaining activity at 5 µM (SGLT1): 98%
- remaining activity at 50 µM (SGLT1): 89%
- remaining activity at 5 µM (hSGLT2): 89%
- remaining activity at 50 µM (hSGLT2): 82%
- CYTOTOXICITY (CHO‐hSGLT1/2 cells; mean): 3

Compound: OC(CCN1CCCCC1)(c1ccccc1)C1CCCCC1 (racemic) [(±)-Trihexyphenidyl HCl]
- SGLT2/SGLT1 ACTIVITY RATIO 5 uM Mean (hSGLT2): 1.0
- SGLT2/SGLT1 ACTIVITY RATIO 50 mM Mean (hSGLT2): 1.3
- CY[…] (% of vehicle control) Mean (CHO‐hSGLT1/2 cells; mean): -12 % of vehicle control

Compound: CC(=O)O[C@H]1C[C@@H](OC(C)=O)[C@@]2(C)CO[C@H]3[C@@H](O)[C@@]4(C)C5=CC[C@@H](c6ccoc6)[C@]5(C)CC[C@@H]4[C@]1(C)[C@@H]32 [1,3-Diacetylvilasinin]
- SGLT2/SGLT1 ACTIVITY RATIO, first concentration (hSGLT2): 1.1
- SGLT2/SGLT1 ACTIVITY RATIO, second concentration (hSGLT2): 1.1
- CYTOTOXICITY, mean (CHO‐hSGLT1/2 cells; [1]): -18

Compound: CC1(C)C(=O)C=C[C@@]2(C)C1=C(O)C(=O)[C@]1(C)[C@@H]2[C@@H](O)C[C@@]2(C)[C@H](c3ccoc3)C[C@H]3O[C@]321 [11beta-Hydroxycedrelone]
- SGLT2/SGLT1 ACTIVITY RATIO, first concentration (hSGLT2): 1.7
- SGLT2/SGLT1 ACTIVITY RATIO, second concentration (hSGLT2): 1.2
- CYTOTOXICITY, mean (CHO‐hSGLT1/2 cells; [1]): -13

Compound: CN1[C@@H]2CC[C@H]1C[C@@H](OC(c1ccccc1)c1ccccc1)C2 [Benztropine mesylate]
- activity (hSGLT2): 73%
- CY[…] (% of vehicle control) Mean (CHO‐hSGLT1/2 cells; mean): -10 % of vehicle control

Compound: CC(C)COCC(CN(Cc1ccccc1)c1ccccc1)N1CCCC1 (stereo not shown) [Bepridil HCl]
- activity (hSGLT2): 65%
- SGLT2/SGLT1 ACTIVITY RATIO 5 uM Mean (hSGLT2; [2]): 1.1
- CY[…] (% of vehicle control) Mean (CHO‐hSGLT1/2 cells; mean): 3.67 % of vehicle control

Compound: CC1(C)C(=O)C=C[C@@]2(C)C1=C(O)C(=O)[C@]1(C)[C@@H]2CC[C@@]2(C)[C@H](c3ccoc3)C[C@H]3O[C@]321 [Cedrelone]
- SGLT2/SGLT1 ACTIVITY RATIO, first concentration (hSGLT2): 1.2
- SGLT2/SGLT1 ACTIVITY RATIO, second concentration (hSGLT2): 1.1
- CYTOTOXICITY, mean (CHO‐hSGLT1/2 cells; [1]): -26

Compound: CN1CCC[C@@H]1CCO[C@](C)(c1ccccc1)c1ccc(Cl)cc1 [Clemastine fumarate]
- CY[…] 50 mM (CHO‐hSGLT1/2 cells; mean): 2.45

Compound: CNCCCN1c2ccccc2CCc2ccccc21 [Desipramine HCl]
- SGLT2/SGLT1 ACTIVITY RATIO 5 uM Mean (hSGLT2; [2]): 0.759
- CY[…] (% of vehicle control) Mean (CHO‐hSGLT1/2 cells; mean): -19 % of vehicle control

Compound: CCN(CC)CCOC(=O)C(c1ccccc1)C1CCCCC1 (stereo not shown) [Drofenine HCl]
- activity (hSGLT2): 72%
- CY[…] (% of vehicle control) Mean (CHO‐hSGLT1/2 cells; mean): 1.71 % of vehicle control

Compound: COc1cc2c(=O)c(-c3ccc(O)cc3)coc2cc1O[C@@H]1O[C@H](CO)[C@@H](O)[C@H](O)[C@H]1O [Glycitin]
- activity (hSGLT2): 106%
- SGLT2/SGLT1 ACTIVITY RATIO 5 uM Mean (hSGLT2; [2]): 1.1
- CYTOTOXICITY (% of vehicle control) Mean (CHO‐hSGLT1/2 cells; mean): -22 % of vehicle control

Compound: O=C1C[C@@H](c2ccc(O[C@@H]3O[C@H](CO)[C@@H](O)[C@H](O)[C@H]3O)cc2)Oc2cc(O)ccc21 [Liquiritin]
- activity (hSGLT2): 101%
- SGLT2/SGLT1 ACTIVITY RATIO 5 uM Mean (hSGLT2; [2]): 1.0
- CYTOTOXICITY (% of vehicle control) Mean (CHO‐hSGLT1/2 cells; mean): -10 % of vehicle control

Compound: CN(C)CCN(Cc1cccs1)c1ccccn1 [Methapyrilene HCl]
- CY[…] 50 mM (CHO‐hSGLT1/2 cells; mean): -16

Compound: CN1CCOC(c2ccccc2)c2ccccc2C1 (stereo not shown) [Nefopam HCl]
- SGLT2/SGLT1 ACTIVITY RATIO 5 uM Mean (hSGLT2; [2]): 0.9
- CY[…] (% of vehicle control) Mean (CHO‐hSGLT1/2 cells; mean): -25 % of vehicle control

Compound: CC1(C)OC(=O)C=C[C@]2(C)[C@H]3CC[C@@]4(C)[C@H](c5ccoc5)OC(=O)[C@H]5O[C@]54[C@]3(C)C(=O)C[C@@H]12 [Obacunone]
- SGLT2/SGLT1 ACTIVITY RATIO, first concentration (hSGLT2): 1.2
- SGLT2/SGLT1 ACTIVITY RATIO, second concentration (hSGLT2): 1.1
- CYTOTOXICITY, mean (CHO‐hSGLT1/2 cells; [1]): -21

Compound: Cc1ccccc1C(OCCN(C)C)c1ccccc1 (stereo not shown) [Orphenadrine HCl]
- CYTOTOXICITY (% of vehicle control) Mean (CHO‐hSGLT1/2 cells; mean): 9 % of vehicle control

Compound: CC=C(C)C(=O)O[C@H]1c2c(ccc3ccc(=O)oc23)OC(C)(C)[C@H]1OC(=O)C(C)=CC [Praeruptorin B - JR MediChem]
- SGLT2/SGLT1 ACTIVITY RATIO 5 uM Mean (hSGLT2; [2]): 0.9
- CYTOTOXICITY (% of vehicle control) Mean (CHO‐hSGLT1/2 cells; mean): -19 % of vehicle control

Compound: CN[C@H]1CC[C@@H](c2ccc(Cl)c(Cl)c2)c2ccccc21 [Sertraline HCl]
- CY[…], mean (CHO‐hSGLT1/2 cells; [1]): -21

Compound: CC(=O)O[C@@H]1C[C@H](O)[C@@]23CO[C@@H](O)[C@]1(C)[C@@H]2C[C@@H](O)[C@]1(C)[C@@H]3C(=O)[C@H](OC(C)=O)[C@@]2(C)[C@H](c3ccoc3)C[C@H]3O[C@]321 [Toosendanin]
- SGLT2/SGLT1 ACTIVITY RATIO, first concentration (hSGLT2): 1.0
- SGLT2/SGLT1 ACTIVITY RATIO, second concentration (hSGLT2): 1.0
- CYTOTOXICITY, mean (CHO‐hSGLT1/2 cells; [1]): -4.53

Compound: CC(C)(C)C(=O)C(Oc1ccc(Cl)cc1)n1cncn1 (stereo not shown) [Triadimefon]
- remaining activity at 5 µM (SGLT1): 101%
- remaining activity at 50 µM (SGLT1): 58%
- remaining activity at 5 µM (hSGLT2): 91%
- remaining activity at 50 µM (hSGLT2): 76%

Compound: OC(CCN1CCCCC1)(c1ccccc1)C1CCCCC1 (stereo not shown) [Trihexyphenidyl, trihexyphenidyl, reference compound]
- IC50 (SGLT1): 12 µM
- SGLT1/2 inhibition stated in words (SGLT1): novel SGLT1/2 inhibitors
- inhibition at 50 µM (SGLT1; read-out: SGLT1 inhibition): 69%
- IC50 (hSGLT2): 20 µM

Compound: CC(CN(C)C)CN1c2ccccc2CCc2ccccc21 (stereo not shown) [Trimipramine maleate]
- activity (hSGLT2): 87%
- SGLT2/SGLT1 ACTIVITY RATIO 5 uM Mean (hSGLT2; [2]): 1.0
- CY[…] (% of vehicle control) Mean (CHO‐hSGLT1/2 cells; mean): -9 % of vehicle control

Compound: Oc1ccc([C@H]2c3c(O)cc4c5c3[C@@H]([C@H](c3ccc(O)cc3)c3c(O)cc(O)cc3[C@H]5[C@@H](c3ccc(O)cc3)O4)[C@@H]2c2cc(O)cc(O)c2)cc1 [Viniferol D]
- SGLT2/SGLT1‐50μmol/L (ratio of SGLT2 to SGLT1 activities with 50 μmol/L inhibitor) (SGLT1): 0.6
- remaining activity at 5 µM (SGLT1): 100%
- remaining activity at 50 µM (SGLT1): 102%
- SGLT1 inhibition (SGLT1; [3]): no effect on SGLT1
- remaining activity at 5 µM (hSGLT2): 97%
- remaining activity at 50 µM (hSGLT2): 65%
- inhibition at 50 µM (hSGLT2; [3]): 35%

Compound: CC1(C)C(=O)C=C[C@@]2(C)C1=C(O)C(=O)[C@]1(C)[C@@H]2[C@@H](O)CC2=C(c3ccoc3)C[C@@H](O)[C@]21C [Walsuronoid B]
- SGLT2/SGLT1 ACTIVITY RATIO, first concentration (hSGLT2): 0.9
- SGLT2/SGLT1 ACTIVITY RATIO, second concentration (hSGLT2): 1.0
- CYTOTOXICITY, mean (CHO‐hSGLT1/2 cells; [1]): -23

Compound: Oc1ccc([C@H]2Oc3cc(O)cc4c3[C@@H]2c2cc(O)cc3c2[C@@H](c2cc(O)cc5c2[C@@H]4[C@H](c2ccc(O)cc2)O5)[C@H](c2ccc(O)cc2)O3)cc1 [a-Viniferin]
- remaining activity at 5 µM (SGLT1): 96%
- remaining activity at 50 µM (SGLT1): 102%
- remaining activity at 5 µM (hSGLT2): 104%
- remaining activity at 50 µM (hSGLT2): 109%

Compound: CCCCN1CCCC[C@H]1C(=O)Nc1c(C)cccc1C [levobupivacaine, reference compound]
- remaining activity at 5 µM (SGLT1): 74%
- remaining activity at 50 µM (SGLT1): 41%
- SGLT1/2 inhibition stated in words (SGLT1; SGLT1 and/or SGLT2, discussion statements): novel SGLT1/2 inhibitors
- remaining activity at 5 µM (hSGLT2): 73%
- remaining activity at 50 µM (hSGLT2): 46%
